# Literature values in US11191734B2, “Ketamine transdermal delivery system” (SHENOX PHARMACEUTICALS, LLC, priority 2015, dated 2021).
# Legend:
# [1] = in vivo
# [2] = not given; remark: listed apart in the source
# NMDA receptor = conditions: in vitro
# [3] = three-compartment model, 70-kg human
compound,measurement,setting,value
CN[C@@]1(c2ccccc2Cl)CCCCC1=O [R-ketamine],antidepressant effectiveness,animal model studies,more effective as an antidepressant than S-ketamine
same,psychotomimetic side effects and abuse liability,in vivo,free of psychotomimetic side effects and abuse liability
CNC1(c2ccccc2Cl)CCCCC1=O (racemic) [ketamine],onset of antidepressant effect after administration,[1],≤ 2 h
same,absolute oral bioavailability,[2]; in humans,10-20%
same,half-life,[2]; in vivo,about 2 hours
same,systemic (primarily hepatic) clearance,[2]; in vivo,about 19 ml/min·kg
same,V1,[2]; [3],133 L
same,clearance,[2]; [3],79.8 L/h
same,micro constant k12,[2]; [3],0.174 h⁻¹
same,micro constant k13,[2]; [3],1.18 h⁻¹
same,micro constant k21,[2]; [3],0.124 h⁻¹
same,micro constant k31,[2]; [3],1.59 h⁻¹
CN[C@]1(c2ccccc2Cl)CCCCC1=O [S-ketamine],affinity on NMDA receptor binding relative to R-ketamine,NMDA receptor,~4 fold
